Source: patent publication US12036270B2, “Method for immunomodulation of using aza-podophyllotoxin derivatives” (Sistema Universitario Ana G. Mendez, priority 2015, dated 2024)
Where “and” joins values, the source holds several entries; their conditions need not be identical. Identical values can stand only once.

System: mouse splenocytes
Assay: in vitro stimulation of mouse splenocytes/lymphocytes, cytokine release measured in supernatant by protein microarray chip
Type: cell-based
Conditions: for IL-6 produced: Example 1 and b94-b99; for cytokine milieu (TH1/TH2/TH17 bias): profile of AP-treated mouse splenocytes; for GCSF levels: Example 2 and b94-b99
Protocol: A total of 2×10^5 mouse splenocytes per well were cultured in a humidified atmosphere at 37° C. and 5% CO2 in round-bottomed 96-well culture plates for five days with the AP compounds […]. Concanavalin A ([…]) and culture media were used as positive and negative controls, respectively. Plates were centrifuged at 1,200 RPM for five minutes, and supernatants were collected. The resulting cytokine profile produced after lymphocyte stimulation was analyzed using a fluorescently-labeled protein microarray chip as indicated by the manufacturer (RayBiotech, Norcross, Ga., USA).
The immunomodulatory effect of the AP compounds was assessed by in vitro stimulation of mouse lymphocytes for five days.

[1] = mouse splenocytes, five days, listed as AP-312
[2] = mouse splenocytes, five days, listed as AP-102
[3] = mouse splenocytes, five days, listed as AP-311
[4] = mouse splenocytes, five days, listed as AP-103

Row | Structure (SMILES) | IL-1b induced (mouse splenocytes, five days) [pg/mL] | IL-12 (IL-12p70) induced (mouse splenocytes, five days) | IL-6 produced (mouse splenocytes, five days) | IL-6 induced (summary / preliminary data) (mouse splenocytes, five days) [pg/mL] | cytokine milieu (TH1/TH2/TH17 bias) | GCSF levels (mouse splenocytes, five days) | G-CSF induced (summary / preliminary data) (mouse splenocytes, five days) [pg/mL] | IL-15 induced (mouse splenocytes, five days) | IL-23 induced (mouse splenocytes, five days) | other results
1 | COc1cccc(C2C3=C(COC3=O)N(CCO)c3cc4c(cc32)OCCO4)c1OC (stereo not drawn) [AP312] | 11.89 | 13 pg/mL | 270 pg/mL | 810 | strong TH2 cytokine milieu, followed by a TH17, and a smaller TH1 cytokine profile |  |  |  |  | IL-6 produced [1]: 269.89 pg/mL; IL-12 (IL-12p70) induced [1]: 27.89 pg/mL
2 | COc1ccc(C2C3=C(COC3=O)N(CCO)c3cc4c(cc32)OCO4)cc1OC (stereo not drawn) [AP102] |  | 29 pg/mL | 257 pg/mL | 772 | highest TH17 cytokine biased, followed by a close TH2 biased and a smaller TH1 cytokine milieu | 736 pg/mL | 2208 |  |  | IL-2 induced (mouse splenocytes, five days): 17 pg/mL; IL-17 induced (mouse splenocytes, five days): 294 pg/mL; IL-6 produced [2]: 257.35 pg/mL; GCSF levels [2]: 735.83 pg/mL; IL-2 induced [2]: 17.36 pg/mL; IL-12 (IL-12p70) induced [2]: 29.09 pg/mL
3 | COc1ccc(C2C3=C(COC3=O)N(CCO)c3cc4c(cc32)OCCO4)c(OC)c1OC (stereo not drawn) [AP311] |  |  | 184 pg/mL | 551 | strong TH2 cytokine milieu, followed by a TH17, and a smaller TH1 cytokine profile |  |  | 56 pg/mL | 27 pg/mL | IL-6 produced [3]: 183.76 pg/mL; IL-23 induced [3]: 26.66 pg/mL
4 | COc1cccc(C2C3=C(COC3=O)N(CCO)c3cc4c(cc32)OCO4)c1 (stereo not drawn) [AP103] | 3.95 | 21 pg/mL | 375 pg/mL | 1125 | high TH2-type cytokines, but equally comparably low TH1 and TH2 | 858 pg/mL | 2575 |  |  | IL-6 produced [4]: 535.06 pg/mL; GCSF levels [4]: 858.15 pg/mL; IL-12 (IL-12p70) induced [4]: 35.70 pg/mL
5 | COc1cc(C2C3=C(COC3=O)N(CCO)c3cc4c(cc32)CCC4)cc(OC)c1O (stereo not drawn) [AP205] | 19.45 | 60 pg/mL and 60.14 pg/mL | 1445 pg/mL and 1444.71 pg/mL | 4351 | high TH2-type cytokines, but equally comparably low TH1 and TH2 | 2336 pg/mL and 2336.49 pg/mL | 7166 | 94 pg/mL and 94.04 pg/mL | 80 pg/mL and 79.96 pg/mL | IL-1a induced (mouse splenocytes, five days): 20 pg/mL and 20.29 pg/mL; IL-9 induced (mouse splenocytes, five days): 30 pg/mL and 30.45 pg/mL
6 | O=C1OCC2=C1C(c1ccccc1)c1cc3c(cc1N2CCO)OCO3 (stereo not drawn) [AP104] |  | 22 pg/mL | 261 pg/mL and 260.85 pg/mL | 782 | high TH2-type cytokines, but equally comparably low TH1 and TH2 | 690 pg/mL and 690.39 pg/mL | 2071 |  | 58 pg/mL and 58.48 pg/mL | IFN-gamma induced (mouse splenocytes, five days): 104.58 pg/mL; IL-2p70 induced (so in the source) (mouse splenocytes, five days): 21.99 pg/mL; IL-10 induced (mouse splenocytes, five days): 14 pg/mL and 13.78 pg/mL
